Test: Human HepG2 cell viability assay in 384 well format
Type: toxicity, cell-based
Design: dose 125 nL, time 70.5 hour; cytotoxicity at 70.5 h: concentration not given beside the values
Conditions: HepG2 cells, read-out: Inhibition

SMILES	cytotoxicity at 70.5 h
COC(=O)N1CCC(c2nnc(Cn3ccnc3)n2C)CC1	-2.68%
c1ccc(-c2n[nH]c(CCNc3nnc(C4CCC4)o3)n2)cc1	-7.22%
CCN(Cc1ccncc1)C(=O)c1cn(CCC2CCCCC2)nn1	-16%
CC(C)Cc1nc(CN2CC(=O)N(C)c3ccccc3C2=O)no1	2.18%
CN(C)C(=O)CN1C[C@@H]2CC[C@H](C1)N(Cc1ccc3nsnc3c1)C2	3.82%
COc1ccccc1CC(=O)N1C[C@H]2CC[C@@H]1CN(Cc1cscn1)C2	-12.1%
O=C1CC2(CCN(Cc3ccc4cccc(O)c4n3)CC2)CN1	-5.81%
CC(=O)c1ccc(C(=O)N2C[C@@H]3CC[C@H](C2)N(Cc2ccccc2)C3)s1	4.96%
c1nc(CCNc2nc(C3CC3)nc3c2CCNCC3)c[nH]1	-10.1%
CC(C)[C@@H]1CN(C(=O)CCc2ccc(F)cc2)C[C@H]1C(=O)O	28.6%
CCN(C)CC(=O)N1CCc2nc(NC)nc(C(=O)N3CCCC3)c2C1	2.56%
CC(C)CN1CC(c2nc(CCc3ccccc3)n[nH]2)CC1=O (stereo unspecified)	-9.23%
FC(F)(F)c1ccc(-c2noc3c2CN(CC2CCCO2)CC3)cc1 (stereo unspecified)	-10.2%
COc1nc2ccccc2cc1CN1CCCC(CNC(C)=O)C1 (stereo unspecified)	-4.14%
Cc1cc(=O)c(C(=O)N2CCCCC2c2ccc(F)cc2)c[nH]1 (stereo unspecified)	-4.63%
Cc1noc(C)c1C1CCCN1C(=O)CN1C(=O)OC(C)(C)C1=O (stereo unspecified)	26.8%
CC(=O)N(C/C=C/c1ccccc1)CCO	7.41%
NCC1CCN(c2nc(C3CCCC3)nc3c2CCNCC3)C1 (stereo unspecified)	21.5%
COC1CCCN(Cc2cc(O)c3cc(C)cc(C)c3n2)C1 (stereo unspecified)	-2.68%
CN1CCCCC1CCC(=O)NCCSc1cnn[nH]1 (stereo unspecified)	-2.59%
CC(C)N1CCC(C(=O)N[C@H](C(=O)O)c2cccc(F)c2F)CC1	-1.13%
Nc1nc(CC(=O)N2CCCC(CCc3cccc(F)c3)C2)cc(=O)[nH]1 (stereo unspecified)	-12.2%
CC1(C)CNC(=O)c2nc(-c3ccccc3)[nH]c2C1	14.6%

SMILES	cytotoxicity at 70.5 h
CCCc1nnc(NC2CCN(Cc3ccc(F)c(F)c3)CC2)o1	-6.56%
CN(C)C(=O)c1cc2c(s1)CCN(C(=O)CCCN1CCCCC1)C2	-6.61%
Cc1nc(-c2cc(Cl)c3c(c2)CC(CN)O3)c[nH]1 (stereo unspecified)	0.0695%
CC(=O)N1C[C@H](NS(=O)(=O)N2CCCC2)[C@@H](c2ccc(C)o2)C1	-7.2%
CNS(=O)(=O)c1ccc(CN2CCCN(c3ccccc3)CC2)cc1	18%
COc1ccc(C(C(=O)O)N2CCN(C3CCCC3)CC2)cc1C (stereo unspecified)	-1.67%
CNC(=O)c1cn2cc(-c3cccc(Cl)c3)n(CC=C(C)C)c(=O)c2n1	-5.75%
CCN(Cc1cnn(CC)c1)C(=O)CN1C(=O)CCc2ccccc21	-4.74%
CNc1cc(C)nc(-c2cc(NC)nc3[nH]ccc23)n1	-8.84%
CSc1ccc(-c2nc(CN3CCC(NC(C)=O)CC3)c(C)o2)cc1	-7.12%
CC(C)[C@@H]1CN(c2ncc(F)cn2)C[C@H]1NC(=O)N(C)C	-3.08%
Cc1c(O)cccc1C(=O)N1CCCC2(C1)C(=O)N(C)c1ccccc12 (stereo unspecified)	23%
Cc1cc(C)n2nc(CC(=O)N[C@H]3C[C@H]4CN(C)CCN4C3)nc2n1	-7.89%
CC(=O)c1ccc(CN2C[C@@H](CN3CCC(O)CC3)[C@@H](CO)C2)cc1	-2.46%
Cc1cc(N(C)Cc2ccsc2)n2nc(C)c(C)c2n1	-10.9%
Cc1cc(C)nc(CN(C)C(=O)C(c2cccnc2)N2CCCC2)c1 (stereo unspecified)	-9.19%
CCCC1(C(=O)O)CCCN(C(=O)c2cc(Cl)ccc2F)C1 (stereo unspecified)	-13.1%
O=c1[nH]ccn1CCCN1CC=C(c2cnn(-c3ccccc3)c2)CC1	-2.11%
CCn1nc(C(C)C)cc1C(=O)N1CC(OCc2ccccc2F)C1	0.716%
CC(C)CS(=O)(=O)CCNc1ncccn1	-4.65%
O=C(NCCn1cccc1)C1CCC(=O)N(C2CCCC2)C1 (stereo unspecified)	-8.05%
CCN1CCN(CCCNc2ncccn2)CC1	9.52%
c1cn(CCNc2nc(NC3CC3)nc3c2CCNCC3)nn1	-14.7%

SMILES	cytotoxicity at 70.5 h
OCc1cn([C@@H]2c3ccccc3C3(CCNCC3)[C@H]2O)nn1	-9%
Cn1ncc2c(N[C@@H]3CS(=O)(=O)C[C@H]3O)nc(C(C)(C)C)nc21	-9.52%
Cc1nonc1OCCNC(=O)COc1ccc(Cl)cc1Cl	-13.9%
CNC(=O)[C@@H]1C[C@@H](NC(=O)CSc2ccccc2)CN1C1CCOCC1	14.1%
COc1cc(-c2cc(-c3ccn(C)c3)nc(N)c2C#N)cc(OC)c1O	-1.48%
CCc1ccc(CN2CCN(C(=O)C(C)C)[C@@H]3CS(=O)(=O)C[C@@H]32)cc1	14.5%
CCn1nc(C)c(C(C)NC(=O)c2cccc(NCC(=O)O)c2)c1C (stereo unspecified)	-9.45%
Cc1n[nH]c(CCC(=O)N2CCOC(Cc3ccccc3)C2)c1C (stereo unspecified)	-7.3%
CNc1ncc(CN(C)C(=O)c2cccc(-n3cccn3)c2)cn1	-6.94%
O=C1CC(NS(=O)(=O)NCc2ccccc2)CN1c1ccccc1Cl (stereo unspecified)	5.29%
OC1(CN(Cc2cccnc2)C2CCCCC2)CNCCOC1 (stereo unspecified)	-2.72%
CCn1c(C)nnc1SCCNc1nc(C)nc2ncccc12	-15.7%
CN(C)CCNC(=O)c1cc2n(n1)CCN(C(=O)c1ccco1)C2	-5.47%
CC(C)n1cnnc1CN(C)Cc1cnc(-c2ccco2)nc1	-1.59%
COCCN(C)CCN1CC2(CCN(C3CCOCC3)CC2)OC1=O	20.5%
Cc1ccc(-c2cc(C(=O)N3CCCC3c3cccnc3)[nH]n2)o1 (stereo unspecified)	-4.23%
CC(=O)c1cnc(NCCN2CCCC(c3ccccc3)C2)nc1C (stereo unspecified)	14.2%
Cc1c[nH]c(CN(C)C(C(=O)O)c2c(F)cccc2Cl)n1 (stereo unspecified)	1.26%
O=C(c1ccnc(N2CCOC(c3ccc(Cl)cc3)C2)c1)N1CCCC1 (stereo unspecified)	-15.4%
CCn1c(C)cc(C(=O)N2CCCC(C(=O)c3nccn3C)C2)c1C (stereo unspecified)	19.6%
Cn1ccnc1C1CCN(C(=O)COCC(F)(F)C(F)F)CC1	-14.1%
CCCn1cnnc1CNC1CSCCSC1	-9.24%
Nc1ccnc(N2CCC(c3nccn3CC3CC3)CC2)n1	17.6%

SMILES	cytotoxicity at 70.5 h
CCn1cc(S(=O)(=O)N2CCC3(CCCN(CC4CCC4)C3=O)C2)cn1 (stereo unspecified)	-0.872%
CC(CO)CN(Cc1ccccc1)Cc1c[nH]cn1 (stereo unspecified)	-15.2%
COc1ccc(OCC2CCCN(Cc3ccncc3)C2)cc1 (stereo unspecified)	-12.6%
Cc1cc(C)n(CC(=O)N2CCCCC2CCN(C)C)c(=O)n1 (stereo unspecified)	-7.91%
Cc1cc(C2CCC2)nc(N(C)Cc2cnccn2)n1	-6.23%
COCCc1ncc(CN2C[C@@H](C(=O)O)[C@H](C(C)C)C2)cn1	14.1%
COCCN(CC1CC1)c1nc(CCN)nc2sc(C)c(C)c12	26.7%
COc1cccc(-n2cc(CN(C)Cc3ccnc(C(C)C)n3)cn2)c1	-6.06%
COc1ccc(-c2nc3c([nH]2)CCCNC3=O)cc1OC	4.81%
CC(C)(CNC1CCCN(Cc2ccccn2)C1)CN1CCOCC1 (stereo unspecified)	-12.6%
NC(=O)c1cc(-c2cccc(C(=O)O)c2)cs1	-15.4%
Cc1n[nH]c(C)c1CNC(=O)CSCc1ccccc1Cl	-0.888%
c1cc2c(cc1Cn1cc(C3CCOC3)nn1)CCCO2 (stereo unspecified)	-13.2%
CC(C)c1ccnc(N[C@H]2COC[C@@H]2N2CCCC2)n1	-15.2%
COc1cc(NC2CCS(=O)(=O)C2)ncn1 (stereo unspecified)	-17.8%
Cc1cc(N2CCC3(CCC(=O)N(CCO)C3)CC2)nc(N(C)C)n1	-3.81%
Cc1noc(CC2CCN(C(=O)C(c3ccccc3C)N(C)C)CC2)n1 (stereo unspecified)	-12.1%
CN(Cc1ccon1)C(=O)C1CC(=O)N(Cc2cccnc2)C1 (stereo unspecified)	-7.61%
COc1ccc(-c2cn(CCSc3ncn[nH]3)nn2)cn1	-9.67%
COCCC1(C(=O)O)CCCN(CC(=O)NCCc2ccccc2)C1 (stereo unspecified)	27.1%
COC(=O)CCCn1ccnc1C(C)c1ccccc1 (stereo unspecified)	-1.4%
CCC(Nc1nccc(C2CCCC2)n1)c1ccncc1 (stereo unspecified)	3.69%
Cc1noc(C)c1CN1C[C@@H](NS(=O)(=O)N(C)C)[C@H](C(C)C)C1	-8.39%

SMILES	cytotoxicity at 70.5 h
CN1CC(c2ccccc2)CC12CCN(C(=O)c1ccncc1)CC2 (stereo unspecified)	-2.51%
CN(C)C(=O)CCCNc1ncc2c(n1)CCN2c1ccccc1	-7.97%
O=C(Nc1cnc2n1CCCC2)C1CCCN1C1CCNCC1 (stereo unspecified)	-15%
CC(C)CCC1=NC2(CCN(C(=O)N3CCN(C)CC3)CC2)C(=O)N1	2.1%
O=C(C1CCCC1)N1CCC(C2CCN(Cc3ccc(Cl)cc3)C2)CC1 (stereo unspecified)	-2.34%
Cc1cc(C(=O)N2CCC(c3nccn3Cc3ccccn3)CC2)no1	-6.61%
Cn1ncc(-c2cc(-c3cccc(O)c3)nc(N)c2C#N)c1C1CC1	37.1%
N#Cc1cc2c(=O)n(CC(O)C(F)(F)F)ccc2[nH]c1=O (stereo unspecified)	3.74%
CCOc1ccc(CCCC(=O)N2CC[C@H](NC(C)=O)C2)cc1C	-12.4%
CC(NC(=O)C1CCN(C(C)C)CC1)c1nncn1C1CCCC1 (stereo unspecified)	-4.33%
CN(C)C(=O)c1nc(CN2CC(Cc3ccccc3)CC2=O)no1 (stereo unspecified)	-2.6%
COc1cccc(-c2noc3c2CN(c2ncnc4c2CCC4)CC3)c1	-6.28%
CC(C)N(Cc1nccn1C)C(=O)c1cc(Cl)c[nH]c1=O	-6.81%
CCNc1nc(C)c(C(=O)N2CCC(C(O)Cc3ccccc3)CC2)s1 (stereo unspecified)	-14.6%
Cc1ccnc(N2C[C@@H]3CC[C@H](C2)N(CC2CCC2)C3=O)n1	9.42%
COc1ncccc1C(=O)N(C)Cc1nc(-c2ccccn2)no1	-8.07%
CCc1ccc2nc(-c3cnn(C)c3)cc(C(=O)N3CCOCC3)c2c1	-7.51%
CNc1nc(CN2C[C@@H](NC(C)=O)[C@H](c3ccc(C)o3)C2)cs1	-16.5%
C[C@@H]1CN(C(=O)CCN2CCCC2)CC[C@@]1(O)C1CCOCC1	-6.69%

From ChEMBL document CHEMBL3507680, “University of Dundee, Gates Library screen for HepG2 cell viability”
